Assay results published in PubChem BioAssay (NCI).
Several values for one entry are separate records, joined by “and”; a condition that tells them apart may be missing. Equal entries are not always repeated.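 A five-concentration, 48-hour dose response in 96-well plates underlies each endpoint, interpolated linearly between surrounding concentrations. GI50 = concentration required for 50% inhibition of growth. TGI is the concentration that stops growth completely.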

Assays:
Assay in all cases: NCI tumour cell line growth inhibition, 48 h
CCRF-CEM leukemia = system: CCRF-CEM leukemia
SW-620 colon = system: SW-620 colon
OVCAR-4 ovarian = system: OVCAR-4 ovarian
HCC-2998 colon = system: HCC-2998 colon
SNB-75 CNS = system: SNB-75 CNS
UO-31 renal = system: UO-31 renal
HCT-15 colon = system: HCT-15 colon
SK-OV-3 ovarian = system: SK-OV-3 ovarian
IGROV1 ovarian = system: IGROV1 ovarian
HCT-116 colon = system: HCT-116 colon

Row | SMILES | TGI (CCRF-CEM leukemia) | TGI (SW-620 colon) | TGI (OVCAR-4 ovarian) [µM] | TGI (HCC-2998 colon) | TGI (SNB-75 CNS) | TGI (UO-31 renal) [µM] | TGI (HCT-15 colon) | TGI (SK-OV-3 ovarian) [µM] | TGI (IGROV1 ovarian) | TGI (HCT-116 colon) | GI50 (CCRF-CEM leukemia) [µM] | GI50 (SW-620 colon) | GI50 (OVCAR-4 ovarian) [µM] | GI50 (HCC-2998 colon) [µM] | GI50 (SNB-75 CNS) [µM] | GI50 (UO-31 renal) [µM] | GI50 (HCT-15 colon) [µM] | GI50 (SK-OV-3 ovarian) | GI50 (IGROV1 ovarian) [µM] | GI50 (HCT-116 colon) [µM]
1 | CC1CC(c2ccccc2)=Nc2ccccc2S1(=O)=O (configuration not stated) | 43.4 µM | 31.6 µM | 38.3 | 19.5 µM | 35.9 µM | 29 | 54.2 µM | 36.4 | 37.8 µM | 3.13 µM | – | – | – | – | – | – | – | – | – | –
2 | Cc1cc(S(=O)(=O)Nc2nc(N)nc(N3N=CCC3C)n2)c(S)cc1Cl (configuration not stated) | > 10 µM | > 10 µM | > 10 | > 10 µM | > 10 µM | > 10 | > 10 µM | > 10 | > 10 µM | > 10 µM | – | – | – | – | – | – | – | – | – | –
3 | CC(=O)NC(CCCCNC(=O)OCc1ccccc1)C(=O)NCc1ccccc1 (configuration not stated) | > 100 µM | > 100 µM | > 100 | > 100 µM | > 100 µM | > 100 | > 100 µM | > 100 | > 100 µM | > 100 µM | – | – | – | – | – | – | – | – | – | –
4 | CC[N+](CCCCCCCCCC[N+](CC)(c1ccccn1)c1ccccn1)(c1ccccn1)c1ccccn1 | 8.78 µM | 15.6 µM | > 100 | 27.2 µM | 32.2 µM | 12.6 | 18.8 µM | 9.28 | 11.7 µM | > 100 µM | 1.05 | 2.14 µM | 1.01 | 1.95 | 1.25 | 2.09 | 3.2 | 2.22 µM | 2.07 | 0.851
5 | CC1=C2C(O)C(C(C)CO)C(O)CC2(C)C(O)CC1 (configuration not stated) | > 100 µM | > 100 µM | > 100 | > 100 µM | > 100 µM | > 100 | > 100 µM | > 100 | > 100 µM | > 100 µM | – | – | – | – | – | – | – | – | – | –
6 | CC1=CSC2=NC(c3ccc(Cl)c(Cl)c3)=CC(c3ccc(Cl)cc3)N12 (configuration not stated) | > 100 µM | > 100 µM | > 100 | > 100 µM | > 100 µM | > 100 | > 100 µM | > 100 | > 100 µM | > 100 µM | > 100 | > 100 µM | > 100 | > 100 | > 95.3 | > 100 | > 100 | > 100 µM | > 100 | > 100
7 | COc1cc(C2c3cc4c(cc3[C@@H](Nc3ccc(C(=O)O)cc3)C3COC(=O)[C@H]23)OCO4)cc(OC)c1O (some centres not stated) | 15.1 µM and 8.82 µM | 62.4 µM and > 17.5 µM | > 100 | 53.8 µM and > 17.5 µM | 27.6 µM and > 17.5 µM | > 100 | 32.8 µM and > 17.5 µM | > 100 | 68.6 µM and > 17.5 µM | 43.9 µM and > 17.5 µM | – | 11.9 µM and 3.89 µM | – | – | – | – | – | 34.4 µM and 15.3 µM | – | –
8 | COc1ccc(NC(=O)C2C(=O)N(c3ccc(OC)cc3)C(=O)/C2=N/O)cc1 (configuration not stated) | > 100 µM | > 100 µM | 31.6 | 47.2 µM | > 73.7 µM | 47 | > 100 µM | 39 | > 80.7 µM | 38.3 µM | – | – | – | – | – | – | – | – | – | –
9 | CC(C)c1ccc(Cc2cnc(NC(=O)c3cc(Br)cs3)s2)cc1 | > 100 µM | > 100 µM | > 100 | > 100 µM | 7.76 µM | > 100 | > 100 µM | 95.7 | > 100 µM | > 100 µM | 4.08 | 2.98 µM | 4.65 | 3.65 | 1.05 | 3.8 | 0.789 | 6.06 µM | 3.7 | 2.98
10 | c1ccc2c(c1)[I+]c1ccccc1-2 | > 50 µM | > 50 µM | > 50 | > 50 µM | > 50 µM | > 50 | > 50 µM | > 50 | > 50 µM | > 50 µM | > 50 | > 50 µM | 21.6 | > 50 | 8.95 | > 50 | > 50 | > 50 µM | > 50 | 38.4
11 | Cc1cc(/C=C2\SC(=Nc3ccccc3)N(C3CCCC3)C2=O)c(C)n1-c1ccc(Cl)cc1 | > 100 µM | > 100 µM | > 100 | > 100 µM | > 100 µM | > 100 | > 100 µM | > 100 | > 100 µM | > 100 µM | > 100 | > 100 µM | > 100 | > 100 | > 100 | > 100 | > 100 | > 100 µM | > 100 | > 100
12 | CC#CC(O)(C(=O)OC1CCCN(C)C1)C1=CC=CCC1 (configuration not stated) | > 100 µM | > 100 µM | > 100 | > 100 µM | > 100 µM | > 100 | > 100 µM | > 100 | > 100 µM | > 100 µM | – | – | – | – | – | – | – | – | – | –
13 | NC(=O)c1c[se]c(C2OC(CO)C(O)C2O)n1 (configuration not stated) | > 100 µM | > 100 µM | > 100 | > 100 µM | > 100 µM | > 100 | > 100 µM | > 100 | > 100 µM | 55 µM | – | – | – | – | – | – | – | – | – | –
